“Also recorded” adds a separate entry of the source.
Assay: Phase I clinical trial: safety and tolerability (TRAE, CNS-related AE, DLT, MTD, RP2D)
Type: in vivo
Description: An adverse event will be described using MedDRA (Medical Dictionary for Regulatory Activities). Analysis of an adverse event will be based on a treatment emergent adverse event (TEAE). TEAE is defined as an adverse event that occur or worsen after a treatment/medication.
Subjects in all the dose groups received a single dose on day 1 (D1), and the blood samples were collected for pharmacokinetic (PK) assay and tolerability observation. […] The administration frequency for the subjects in the subsequent dose groups after entering the multiple-dose period was determined based on the obtained PK and tolerability data. In this trial, the administration frequency for all the subjects could be adjusted throughout the trial based on the continuously acquired safety and PK data. The four lower dose groups (5 mg, 10 mg, 20 mg and 40 mg) used an accelerated titration design, with one subject enrolled in each dose group. […] The 60 mg dose group and the subsequent dose groups followed a "3+3" dose escalation method, and the MTD was determined. […] During the dose escalation, if a dose group was confirmed to have a preliminary antitumor effect and manageable safety (e.g., no DLT occurred in 3 subjects or only 1 out of 6 subjects experienced DLT), the dose level could be expanded after a discussion and confirmation by the researcher and the sponsor.

[1] = 60mg dose group n=168, any level

## [2H]C([2H])([2H])n1nc2c(c1C#N)-c1cnc(N)c(c1)O[C@H](C)c1cc(F)ccc1C(=O)N(C)C2 [compound A, (10R)-7-amino-12-fluoro-2-(methyl-d3)-10,16-dimethyl-15-oxo-10,15,16,17-tetrahydro-2H-8,4-(metheno)pyrazolo[4,3-h][2,5,11]benzoxadiazacyclotetradecine-3-carbonitrile]
[1]
  Any TRAE: 159 (94.6) number of cases (%)
  TRAE Anemia: 26 (15.5) number of cases (%)
  TRAE Diarrhea: 8 (8.2) number of cases (%)
  TRAE Edema: 45(22.7) number of cases (%)
  TRAE Elevated alanine aminotransferase: 14 (8.3) number of cases (%)
  TRAE Elevated creatinine: 11 (6.5) number of cases (%)
  TRAE Hypercholesterolemia: 131 (78.0) number of cases (%)
  TRAE Hypertriglyceridemia: 124 (73.8) number of cases (%)
  TRAE Hyperuricemia: 26 (15.5) number of cases (%)
  TRAE Hypoproteinemia: 10 (6.0) number of cases (%)
  TRAE Increased AST: 18 (10.7) number of cases (%)
  TRAE Increased LDL cholesterol: 45 (26.8) number of cases (%)
  TRAE Increased creatine phosphokinase: 9 (5.4) number of cases (%)
  TRAE Increased glutamine transferase: 9 (5.4) number of cases (%)
  TRAE Increased lipase: 12 (7.1) number of cases (%)
  TRAE Peripheral neuropathy: 34(20.2) number of cases (%)
  TRAE Positive for occult blood in urine: 13 (7.7) number of cases (%)
  TRAE Proteinuria: 7 (7.2) number of cases (%)
  TRAE Weight gain: 77 (45.8) number of cases (%)
60mg dose group n=168, ≥3
  Any TRAE: 61 (36.3%) number of cases (%)
  TRAE Anemia: 4 (2.4) number of cases (%)
  TRAE Diarrhea: 0 number of cases (%)
  TRAE Edema: 2 (1.2) number of cases (%)
  TRAE Elevated alanine aminotransferase: 0 number of cases (%)
  TRAE Elevated creatinine: 0 number of cases (%)
  TRAE Hypercholesterolemia: 17 (10.1) number of cases (%)
  TRAE Hypertriglyceridemia: 31 (18.5) number of cases (%)
  TRAE Hyperuricemia: 4 (2.4) number of cases (%)
  TRAE Hypoproteinemia: 0 number of cases (%)
  TRAE Increased AST: 0 number of cases (%)
  TRAE Increased LDL cholesterol: 0 number of cases (%)
  TRAE Increased creatine phosphokinase: 0 number of cases (%)
  TRAE Increased glutamine transferase: 2 (1.2) number of cases (%)
  TRAE Increased lipase: 1 (0.6) number of cases (%)
  TRAE Peripheral neuropathy: 1 (0.6) number of cases (%)
  TRAE Positive for occult blood in urine: 0 number of cases (%)
  TRAE Proteinuria: 0 number of cases (%)
  TRAE Weight gain: 11 (6.5) number of cases (%)
198 patients
  dose interruption or dose reduction due to treatment-related CNS AEs: no dose interruption or dose reduction was observed
  most common TRAEs: hypercholesterolemia, hypertriglyceridemia, or weight gain
  patients with grade ≥ 3 treatment-related CNS AEs: 1.0%
Any level
  Any CNS-related AE: 18 (9.1) number of cases (%)
  CNS-related AE: Anger: 1 (0.5) number of cases (%)
  CNS-related AE: Cognitive impairment: 1 (0.5) number of cases (%)
  CNS-related AE: Depression: 3 (1.5) number of cases (%)
  CNS-related AE: Disorganized speech: 1 (0.5) number of cases (%)
  CNS-related AE: Impact on cognition: 5 (2.5) number of cases (%)
  CNS-related AE: Impact on emotion: 4 (2.0) number of cases (%)
  CNS-related AE: Impact on language: 2 (1.0) number of cases (%)
  CNS-related AE: Impact on sleep: 7 (4.5) number of cases (%)
  CNS-related AE: Insomnia: 1 (0.5) number of cases (%)
  CNS-related AE: Memory impairment: 3 (1.5) number of cases (%)
  CNS-related AE: Mental disorder: 1 (0.5) number of cases (%)
  CNS-related AE: Poor sleep quality: 6 (4.0) number of cases (%)
  CNS-related AE: Speech disorder: 1 (0.5) number of cases (%)
In total n=198, any level
  Any TRAE: 184 (92.9%) number of cases (%)
  TRAE Anemia: 27 (13.6) number of cases (%)
  TRAE Diarrhea: 13 (6.6) number of cases (%)
  TRAE Edema: 51(25.8) number of cases (%)
  TRAE Elevated alanine aminotransferase: 18 (9.1) number of cases (%)
  TRAE Elevated creatinine: 12 (6.1) number of cases (%)
  TRAE Hypercholesterolemia: 154 (77.8) number of cases (%)
  TRAE Hypertriglyceridemia: 147 (74.2) number of cases (%)
  TRAE Hyperuricemia: 27 (13.6) number of cases (%)
  TRAE Hypoproteinemia: 10 (5.1) number of cases (%)
  TRAE Increased AST: 20 (10.1) number of cases (%)
  TRAE Increased LDL cholesterol: 51 (25.8) number of cases (%)
  TRAE Increased creatine phosphokinase: 11 (5.6) number of cases (%)
  TRAE Increased glutamine transferase: 10 (5.1) number of cases (%)
  TRAE Increased lipase: 19 (9.6) number of cases (%)
  TRAE Peripheral neuropathy: 38(19.2) number of cases (%)
  TRAE Positive for occult blood in urine: 13 (6.6) number of cases (%)
  TRAE Proteinuria: 10 (5.1) number of cases (%)
  TRAE Weight gain: 91 (46.0) number of cases (%)
In total n=198, ≥3
  Any TRAE: 73 (36.9%) number of cases (%)
  TRAE Anemia: 4 (2.0) number of cases (%)
  TRAE Diarrhea: 0 number of cases (%)
  TRAE Edema: 3(1.5) number of cases (%)
  TRAE Elevated alanine aminotransferase: 0 number of cases (%)
  TRAE Elevated creatinine: 0 number of cases (%)
  TRAE Hypercholesterolemia: 18 (9.1) number of cases (%)
  TRAE Hypertriglyceridemia: 38 (19.2) number of cases (%)
  TRAE Hyperuricemia: 4 (2.0) number of cases (%)
  TRAE Hypoproteinemia: 0 number of cases (%)
  TRAE Increased AST: 0 number of cases (%)
  TRAE Increased LDL cholesterol: 0 number of cases (%)
  TRAE Increased creatine phosphokinase: 0 number of cases (%)
  TRAE Increased glutamine transferase: 2 (1.0) number of cases (%)
  TRAE Increased lipase: 1 (0.5) number of cases (%)
  TRAE Peripheral neuropathy: 1(0.5) number of cases (%)
  TRAE Positive for occult blood in urine: 0 number of cases (%)
  TRAE Proteinuria: 0 number of cases (%)
  TRAE Weight gain: 14 (7.1) number of cases (%)
Dose escalation and dose expansion phases
  incidence of other AE, 60 mg dose group versus 80 mg dose group: significantly lower
Dose escalation phase, 5 to 125 mg
  dose-limiting toxicity (DLT): No DLT was observed; also recorded: No dose-limiting toxicity was observed
Dose escalation up to 125 mg
  MTD: not reached
≥3
  Any CNS-related AE: 2 (1.0) number of cases (%)
  CNS-related AE: Anger: 0 number of cases (%)
  CNS-related AE: Cognitive impairment: 0 number of cases (%)
  CNS-related AE: Depression: 0 number of cases (%)
  CNS-related AE: Disorganized speech: 0 number of cases (%)
  CNS-related AE: Impact on cognition: 1 (0.5) number of cases (%)
  CNS-related AE: Impact on language: 1 (0.5) number of cases (%)
  CNS-related AE: Insomnia: 0 number of cases (%)
  CNS-related AE: Memory impairment: 0 number of cases (%)
  CNS-related AE: Mental disorder: 1 (0.5) number of cases (%)
  CNS-related AE: Poor sleep quality: 0 number of cases (%)
  CNS-related AE: Speech disorder: 1 (0.5) number of cases (%)

— patent EP4810038A1, “METHOD FOR TREATING ALK-POSITIVE OR ROS1-POSITIVE NON-SMALL CELL LUNG CANCER” (Shenzhen TargetRx Co., Ltd., priority 2023, dated 2025)
